The values below come from PMC13086964, “USP7 deubiquitinase stabilizes FAN1 to support DNA crosslink repair and suppress CAG repeat expansion” (Nature Communications, 2026).

Where no end group is shown, it is not given here. The star is where a group is joined. FITC = O=C1OC2(c3ccc(O)cc3Oc3cc(O)ccc32)c2ccc(NC(=S)*)cc21; Biotin = O=C1N[C@H]2[C@H](CS[C@H]2CCCCC(=O)*)N1; Ahx = NCCCCCC(=O)O

One assay deals with FAN1-USP7. Description: GFP-Trap co-IP after UAE inhibition, FAN1-USP7 binding. It counts as cell-based, human. As to conditions: HEK293T cells, 10 μM for 2 h. How it is done:
Cells were lysed in NP-40 buffer [50 mM tris-HCl (pH 7.5), 120 mM NaCl, 1 mM EDTA, 6 mM EGTA, 15 mM sodium pyrophosphate, and 1% NP-40, supplemented with phosphatase inhibitors (20 mM NaF and 1 mM Na3VO4) and protease inhibitors (1 mM benzamidine, 0.1 mM PMSF and cOmplete™ Protease Inhibitor Cocktail)], incubated with Benzonase (Merck) for at least 30 min at 4 °C, and clarified by centrifugation. Between 1 and 3 mg of lysates were incubated with anti-FLAG M2 (Sigma-Aldrich) or ChromoTek GFP-Trap® Agarose resin (Proteintech) for 2 h or overnight at 4 °C. The beads were then washed three times with NP-40 buffer and once with TEN100 buffer. Retrieved protein complexes were boiled in SDS sample buffer and analysed by SDS-PAGE followed by immunoblotting.
(§1) Figure S1 (related to Figure 1). […]
ubiquitin. (A) HEK293eGFP-FAN1 cells were transfected either with non-targeting (Ctrl) or the indicated siRNA oligos. 24 h later, GFP-FAN1 expression was induced with Dox (100 ng/ml). 24 h post induction, cells were lysed and whole-cell extracts were subjected to GFP-Trap resin. Inputs and recovered protein complexes were analysed by immunoblotting. (B) HEK293 cells were transfected with either e.v. or GFP-FAN1-wt expressing constructs. […] Inputs and recovered protein complexes were analysed by immunoblotting. […] Inputs and recovered protein complexes were analysed by immunoblotting. […]

Assay [1] has as its system cellular ubiquitin conjugates. The assay can be described thus: cellular ubiquitin conjugates after UAE inhibition. The class given is cell-based. As to conditions: HEK293T cells, 10 μM for 2 h. The protocol: as §1
ubiquitin. (A) HEK293eGFP-FAN1 cells were transfected either with non-targeting (Ctrl) or the indicated siRNA oligos. 24 h later, GFP-FAN1 expression was induced with Dox (100 ng/ml). 24 h post induction, cells were lysed and whole-cell extracts were subjected to GFP-Trap resin. Inputs and recovered protein complexes were analysed by immunoblotting. (B) HEK293 cells were transfected with either e.v. or GFP-FAN1-wt expressing constructs. 48 h later, cells were lysed and whole-cell extracts were incubated with a FAN1-derived 60-mer peptide (aa 118 to 177) for 2 h and subjected to GFP-Trap resin. Inputs and recovered protein complexes were analysed by immunoblotting. (C) HEK293T cells were transfected with either e.v. or GFP-FAN1-wt expressing constructs. 48 h later, cells were either mock-treated (-) or treated (+) with TAK-243 (10 μM) for 2 h, lysed and whole-cell extracts were subjected to GFP-Trap resin. Inputs and recovered protein complexes were analysed by immunoblotting. The experiments in (A-C) were repeated three independent times.
(1 picture or pasted object on this page, not shown here)

For another assay, the system named is USP7. The assay can be described thus: streptavidin pulldown of biotinylated FAN1 peptides with recombinant His-USP7. The class given is binding, human. As to conditions: 10 µg peptide on Strep-Tactin XT 4Flow resin, 0.5 µg recombinant USP7, 2 h at 4 °C, immunoblot; for USP7 binding of biotinylated FAN1 peptide: 12mer TRAF peptides, repeated three times; for USP7 binding of biotinylated FAN1 UBL peptide: 13mer UBL peptides. How it is done:
(§2) Fig. 2 FAN1 associates with the TRAF-like and UBL domains of USP7. A Top: schematic representation of the human USP7 protein indicating point mutants. TRAF tumour necrosis factor receptor associated factor (orange), CD catalytic domain (cyan), UBL ubiquitin-like (yellow to brown). Bottom: HEK293^eGFP-FAN1 cells were transfected with either e.v. or the indicated FLAG-USP7 expression constructs. 24 h later, GFP-FAN1 expression was induced with Dox (100 ng/ml). 48 h post induction, cells were lysed and whole-cell extracts were subjected to IP using anti-FLAG M2 affinity resin. Inputs and recovered protein complexes were analysed by immunoblotting. Asterisk indicates IgG heavy chain from anti-FLAG M2 affinity resin. B Sequences of the biotinylated 12-mer FAN1-derived TRAF peptides. The corresponding amino acids are indicated. Key residues are highlighted in bold. B, C Biotinylated FAN1 TRAF peptides (10 µg) were immobilized on Strep-Tactin®XT-4Flow® resin and incubated with recombinant purified His-USP7. Inputs and recovered His-USP7 were analysed by immunoblotting. D Fluorescence polarization (FP) binding curves of FITC-labelled FAN1-derived 8mer peptides: wild-type (wt; black circle), P181A (green triangle), Q182A (orange diamond), S184A (red square). The corresponding amino acids are indicated. Key residues are highlighted in bold. FP was measured as a function of USP7-TRAF (aa 2–207) concentration. FP values were normalized by expressing the millipolarization (mP) of each sample relative to the corresponding wild-type peptide. Background signal was corrected by subtracting baseline FP measured in the absence of USP7-TRAF. Data are presented as the means ± SD of three biological replicates (n = 3). E Top: schematic representation of the human USP7 protein indicating truncation mutants. TRAF tumour necrosis factor receptor associated factor, CD catalytic domain, UBL ubiquitin-like. HEK293^eGFP-FAN1 cells were transfected with either e.v. or the indicated FLAG-USP7 expression constructs. 24 h later, GFP-FAN1 expression was induced with Dox (100 ng/ml). 48 h post induction, cells were lysed and whole-cell extracts were subjected to IP using anti-FLAG M2 affinity resin. Inputs and recovered protein complexes were analysed by immunoblotting. Asterisk indicates IgG heavy chain from anti-FLAG M2 affinity resin. The experiments in (A–C, E) were repeated three independent times.
For peptide pull-down assays, biotinylated FAN1 peptides were incubated with Strep-Tactin® XT 4Flow® resin (IBA LifeScience) at room temperature for 30 minutes and washed four times with 0.1% Triton-PBS and two times with HNE buffer (20 mM HEPES pH 7.5, 0.2 mM EDTA, 0.5% NP-40, 150 mM NaCl, 0.5 mM DTT, 0.1% BSA, 0.5 mM PMSF). […] Beads were then washed three times with HNE buffer, once with TEN300 (20 mM Tris-HCl pH 7.4, 0.1 mM EDTA and 300 mM NaCl) and once with TEN100 buffer. Complexes were boiled in SDS sample buffer and analysed by SDS–PAGE followed by immunoblotting.
Figure S3 (Related to Figure 2). USP7 contacts FAN1 via its UBL domain. […]
Inputs and recovered MBP-His-FAN1 were analysed by immunoblotting. (C) Sequences of the biotinylated 13-mer FAN1-derived UBL peptides. The corresponding amino acids are indicated. Key residues are highlighted in bold. (C and D) Biotinylated FAN1 UBL peptides (10 µg) were immobilized on Strep-Tactin® XT 4Flow® resin and incubated with recombinant purified His-USP7. Inputs and recovered His-USP7 were analysed by immunoblotting. […]
The experiments in (A-E) were repeated three independent times.

A further assay concerns USP7 TRAF (aa 2-207). Description: fluorescence polarization assay, FITC-labelled FAN1-derived peptides. The class given is binding, human. As to conditions: 8mer FITC-labelled peptides; 20 mM HEPES pH 7.4, 50 mM KCl, 1 mM TCEP, 0.005% Tween-20, 0.2% DMSO; USP7 TRAF 14-point 2-fold from 200 µM; 1 µL of 200 nM peptide added to 19 µL; n = 3. The protocol: as §2, with “Data are presented as the means ± SD of three biological replicates (n = 3). E Top: schematic representation of the human USP7 protein indicating truncation mutants. TRAF tumour necrosis factor receptor associated factor, CD catalytic domain, UBL ubiquitin-like. HEK293^eGFP-FAN1 cells were transfected with either e.v. or the indicated FLAG-USP7 expression constructs. 24 h later, GFP-FAN1 expression was induced with Dox (100 ng/ml). 48 h post induction, cells were lysed and whole-cell extracts were subjected to IP using anti-FLAG M2 affinity resin.” left out, “Asterisk indicates IgG heavy chain from anti-FLAG M2 affinity resin. The experiments in (A–C, E) were repeated three independent times.” left out
USP7 TRAF (aa 2-207) was serially diluted (14-point, 2-fold) in assay buffer (20 mM HEPES (pH 7.4), 50 mM KCl, 1 mM TCEP, 0.005% Tween-20 (v/v), 0.2% DMSO (v/v)) from a top concentration of 200 µM. […] Fluorescence polarization (mP, millipolarization units) was measured using Agilent BioTek Synergy H1 with excitation 485 nm, emission 528 nm, gain 80, in a kinetic read (6 measurements in 30 min). […]

In the case of `NS(=O)(=O)OC[C@H]1C[C@@H](Nc2ccnc3cc(-c4cccc(SC(F)(F)F)c4)nn23)[C@H](O)[C@@H]1O` [TAK-243], the FAN1-USP7 binding result in the assay with FAN1-USP7 is recorded as “did not impact FAN1-USP7 binding”. Besides, the cellular ubiquitin conjugates result in assay [1] is listed as “depletion of cellular ubiquitin conjugates”.
With “Biotin-AGSSPQSAKSTV-NH2 [TRAF3 S184A (12mer), biotinylated 12mer FAN1 peptide, S184A]”, the “USP7 binding of biotinylated FAN1 peptide” value in the assay on USP7 (listed as S184A ‘TRAF3’ mutant peptide) was “failed to bind”; in the assay on USP7 (listed as serine residue 184 to alanine (S184A)), “abrogated USP7 binding”.
For “Biotin-PLEQGSSCNGPG-NH2 [TRAF4 (12mer), biotinylated 12mer FAN1 peptide containing the 358-EQGS-361 motif]”, the “USP7 binding of biotinylated FAN1 peptide” value in the assay with USP7 is given as “weak USP7 binding”.
Turning to “Biotin-SLASALSRAYVKA-NH2 [UBL2 2KA (12mer), FAN1 UBL2 K158A/K162A (2KA) 13mer peptide]”, the “USP7 binding of biotinylated FAN1 UBL peptide” value with USP7 was “did not abolish USP7 association”; with USP7 (listed as K158A/K162A ‘UBL2’ mutant peptide), “no reduction in USP7 binding”.
Regarding “Biotin-SLASKLSRKYVKA-NH2 [UBL2 (12mer), biotinylated FAN1-derived 13mer UBL peptide with 158-KLSRK-162]”, the “USP7 binding of biotinylated FAN1 UBL peptide” value in the assay on USP7 was “exhibited detectable USP7 binding”.
Turning to “{FITC-Ahx}-SSAQSSKS [TRAF3 P181A (8mer), FITC-labelled FAN1-derived 8mer peptide, P181A]”, the “binding to the USP7 TRAF domain (FP)” value in the assay with USP7 TRAF (aa 2-207) is reported as “did not abolish the interaction”.
As to “{FITC-Ahx}-SSPQSAKS [TRAF3 S184A (8mer), FITC-labelled FAN1-derived 8mer peptide, S184A]”, in the assay on USP7 TRAF (aa 2-207), the “binding to the USP7 TRAF domain (FP)” value is “markedly impaired binding”.
Same read-out and setting: the same measure for “{FITC-Ahx}-SSPQSSKS [TRAF3 (8mer), FITC-labelled FAN1-derived 8mer peptide, wild-type]”: “bound efficiently to the USP7 TRAF domain”.
